Results on one substance are retold here after publication PMC12767106, “In Situ Assembly of Transformable Monopeptide on Activated Neutrophils Attenuates NETs‐Induced Hepatocellular Carcinoma Metastasis by Disrupting NE Nuclear Translocation” (Advanced Science, 2025).

The target in the data set is T1, NE protein (Homo sapiens, UniProt P08246).
T1 construct: purchased AkrivisBio MA-0156
T1 sequence (P08246 30-267): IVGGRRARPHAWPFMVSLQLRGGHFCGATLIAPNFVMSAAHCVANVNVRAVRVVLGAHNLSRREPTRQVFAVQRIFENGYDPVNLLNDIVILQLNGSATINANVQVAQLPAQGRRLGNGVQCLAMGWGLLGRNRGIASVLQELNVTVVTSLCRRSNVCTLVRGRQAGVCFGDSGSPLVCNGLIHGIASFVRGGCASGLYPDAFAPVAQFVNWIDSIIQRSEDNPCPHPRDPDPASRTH
In words: Transformation kinetics by PpIX fluorescence after addition of NE protein. The class given is physicochemical. Particulars: 24 h incubation, NE protein/peptide ligand about 1/1000, emission about 635 nm. As to the method:
Submitted to Advanced Science temperature. Following the incubation, 10 µL of the solution was added to a copper mesh at 0 and 24 h. Filter paper was used to remove any extra droplets after an overnight stay. The samples were then stained for five minutes with uranyl acetate and then rinsed for one minute with water (10 µL). Finally, dried samples were observed by TEM (Talos 120C, Thermo Fisher Scientific, USA). DLS (Zetasizer Nano ZS, UK) was used to assess the solution for hydrodynamic size and zeta potential at 0 and 24 h following the incubation. Then, the nanofiber structure at 0 h and 24 h after incubation of FTP-NPs was examined with Circular Dichroism (CD) Spectra (Chirascan, UM, Britain). In addition, the variation of fluorescence emission spectra of PpIX by […]
transformation of FTP-NPs.
Pyrene molecules were employed as an indicator to determine the critical aggregation concentration (CAC) of nanoparticles by comparing the fluorescence of their third and first emissive peaks. […] The fluorescence spectra of pyrene (excitation, 335 nm) in different NPs dilutions were recorded. The fluorescence intensity ratio (I3/I1) of the third and first emissive peaks was measured for CAC calculation. […]

With PpIX-GFFVLK-EAIPMSIPPEVK [FTP-NPs], the “fluorescence intensity of PpIX after addition of NE protein” value amounted to 78.3%.
